Measurements from patent US20230372334A1, “USE OF AN ERK INHIBITOR FOR THE TREATMENT OF MYELOFIBROSIS” (Novartis AG, priority 2020, published 2023).
“Also recorded” adds a separate entry of the source.

Legend:
MPLW515L mice = experiment: MPLW515L mutant MPN mouse model; type: in vivo; details: oral gavage, FIG. 2D
[1] = test system: JAK2V617F PV/MF mouse model; experiment: JAK2V617F PV/MF mouse model, 14 consecutive days oral dosing (Example 3); details: ruxolitinib 60 mg/kg BID, Compound A 75 mg/kg QD, 14 days; for body weight change: FIG. 4A; for bone marrow cellularity / bone marrow toxicity: FIG. 4B; for WBC count: FIG. 4C; for platelet count: FIG. 4D; for elevated hematocrit / splenomegaly: vs vehicle; for elevated hematocrit: FIG. 3A; for splenomegaly: FIG. 3B
From the text: For treatment studies, bone marrow (BM) from primary Jak2V617F Vav-Cre CD45.2 mice was mixed 1:1 with Jak2 wild-type CD45.1 BM and transplanted into lethally irradiated CD45.1 recipients. Development of the MPN phenotype was confirmed by peripheral blood counts 2 months after BM transplantation. Mice were randomized to treatment groups according to blood counts and treated by oral gavage for 1-4 weeks.

Jak2V617F mice = experiment: Jak2V617F knock-in mouse model (polycythemia vera phenotype), competitive BM transplant; type: in vivo; details: for reduction of hematocrit: Example 4, FIG. 5B
[2] = test system: CD34+ peripheral blood mononuclear cells (PBMCs) of a MF patient; experiment: Colony growth from CD34+ PBMCs of a MF patient; type: cell-based, human; details: FIG. 5A
[3] = test system: Ba/F3 cell line stably expressing erythropoietin receptor (EpoR) and wild-type JAK2; experiment: Antiproliferative activity, CellTiter-Glo viability assay at 48h, Ba/F3 EpoR wild-type JAK2; type: cell-based, murine; details: EpoR Jak2 wild type Ba/F3 cells; FIG. 6
Protocol: (§1) To assess anti-proliferative effects of inhibitors, cells were seeded at 10′000/200 ul with increasing inhibitor concentrations in triplicate. Proliferation was assessed at 48h using the CellTiter-Glo viability assay (Promega) and normalized to cell growth in medium with equivalent volume of DMSO.

[4] = test system: Ba/F3 cell line stably expressing erythropoietin receptor (EpoR) and Jak2V617F; experiment: Antiproliferative activity, CellTiter-Glo viability assay at 48h, Ba/F3 EpoR Jak2V617F; type: cell-based, murine; details: EpoR Jak2V617F mutant Ba/F3 cells; FIG. 6
Protocol: as §1

[5] = test system: ERK downstream targets RSK3 and DUSP6; experiment: ERK signaling in splenocytes of Jak2V617F mice by Western blot; type: in vivo, mouse; details: FIG. 2A

| SMILES | correction of leukocytosis (WBC count) (MPLW515L mice) | polycythemia [1] | tolerability [1] | body weight change [1] | bone marrow cellularity / bone marrow toxicity [1] | WBC count [1] | platelet count [1] | elevated hematocrit [1] | elevated hematocrit ([1]; listed as Ruxolitinib) | splenomegaly [1] | splenomegaly ([1]; listed as Ruxolitinib) | reduction of hematocrit (Jak2V617F mice) | growth of colonies derived from CD34+ PBMCs [2] | suppression of proliferation (decrease in IC50 value) [3] | suppression of proliferation (decrease in IC50 value) [4] | activation of ERK downstream targets RSK3 and DUSP6 [5] | polyglobulia or polycythemia (hematocrit levels) (Jak2V617F mice; oral gavage, FIG. 2B) | splenomegaly (spleen weight) (Jak2V617F mice; oral gavage, FIG. 2C) |
| --- | --- | --- | --- | --- | --- | --- | --- | --- | --- | --- | --- | --- | --- | --- | --- | --- | --- | --- |
| N#CC[C@H](C1CCCC1)n1cc(-c2ncnc3[nH]ccc23)cn1 [ruxolitinib, (R)-3-(4-(7H-pyrrolo[2,3-d]pyrimidin-4-yl)-1H-pyrazol-1-yl)-3-cyclopentylpropanenitrile, reference compound] | superior to that of Compound A | significantly normalized | well tolerated | lack of body weight loss | absence of bone marrow toxicity | normal | normal; also recorded: absence of thrombocytopenia | significantly normalized | significantly reduced | significantly normalized | significantly reduced | comparable reduction | comparably suppressed growth |  |  |  |  |  |
| CNC[C@@H](NC(=O)c1ccc(-c2nc([C@H]3CC[C@H](O)[C@@H](F)C3)cnc2N)cc1F)c1cc(F)cc(Br)c1 [Compound A, 4-(3-amino-6-((1S,3S,4S)-3-fluoro-4-hydroxycyclohexyl)pyrazin-2-yl)-N-((S)-1-(3-bromo-5-fluorophenyl)-2-(methylamino)ethyl)-2-fluorobenzamide] | ruxolitinib was superior to that of Compound A | significantly normalizes | well tolerated | lack of body weight loss | absence of bone marrow toxicity | normal | normal; also recorded: absence of thrombocytopenia | significantly normalized; also recorded: significantly reduced; also recorded: reduces |  | significantly normalizes; also recorded: significantly reduced |  | comparable reduction | comparably suppressed growth | ruxolitinib was superior to that of Compound A | ruxolitinib was superior to that of Compound A | inhibited activation | potently corrected | potently corrected |
